Reference: patent publication EP4623908A1, “USE OF (-)-EPIGALLOCATECHIN GALLATE COMPOUND” (CF Pharmtech, Inc., priority 2022, dated 2024)

System: Bleomycin-Induced Pulmonary Fibrosis in Mice
Test: Bleomycin-induced pulmonary fibrosis model in mice (Example 4)
Format: in vivo, C57BL/6J mice
Conditions: for Hydroxyproline Content: mouse lung tissue, Mean±SEM
Protocol: A total of 56 male C57BL/6J mice, SPF grade, aged 7-10 weeks, with a body weight range of 20-35g, were purchased from SPF (Beijing) Biotechnology Co., Ltd..
Injectable Bleomycin (BLM, 15mg/vial, batch number 20067411): Hanhui Pharmaceutical Co., Ltd. • Solvent 1: Components include purified water, citric acid, and sodium citrate, a transparent, clear liquid. • Solvent 2: Sodium chloride injection (batch number K21080307), purchased from Hanhui Pharmaceuticals Co., Ltd (formerly Hisun-Pfizer Pharmaceuticals Co., Ltd.). • Hydroxyproline (HYP) assay kit: Purchased from Merck Sigma-Aldrich.
The mice were randomly divided into the following groups, with 8 mice in each group: • Sham operation group (normal control group), • Pulmonary fibrosis model group, • Oral gavage group, • Tracheal Nebulization groups 1-4.
On Day 1 (D1), the normal control group mice were administered solvent 2 (sodium chloride injection, 1 mL/kg) via tracheal nebulization. All other groups were administered bleomycin (2 mg/kg, 1 mL/kg) via tracheal nebulization in the morning and afternoon to construct the pulmonary fibrosis model.
The oral gavage dose for mice was 100 mg/kg (calculated based on the oral dose of 60 mg/kg for rats, according to FDA guidelines, and converted for equivalent oral dosage in mice by body surface area). The tracheal nebulization doses were 0.2 mg/kg, 0.4 mg/kg, 0.8 mg/kg, and 1.6 mg/kg. Both the normal control group and the pulmonary fibrosis model group were administered solvent 1 via tracheal nebulization once a day, starting on D10 post-model induction.
Mice from each group were anesthetized on Day 22 via intraperitoneal injection of chloral hydrate (50 mg/mL, 0.1 mL/10g) and sacrificed by abdominal aorta blood collection. All animals underwent dissection, and lung tissues were preserved. The total lung weight (including animals that died unexpectedly or were euthanized) was measured. The left lung was excised and stored at below -60°C for hydroxyproline content testing. The remaining right lung tissue and bronchioles were fixed in 10% neutral-buffered formalin and processed for routine histology: paraffin embedding, sectioning, HE staining, and Masson staining.
Lung coefficient = lung weight (mg)/body weight (g). [formula] Early-stage inflammation with infiltration of inflammatory cells, followed by the proliferation of fibroblasts and excessive collagen deposition, leads to an increase in lung coefficient. Thus, the lung coefficient serves as an indirect indicator of the inflammation and fibrosis degree in mice.
Mice were weighed prior to grouping, on the model induction day, after the first drug administration, and every 3 days thereafter. […] Changes in body weight reflect the effect of the drug administration. Statistical analysis was performed using two-way ANOVA and Tukey's multiple comparison test.
Lung tissue inflammation, fibroproliferation, and other pathological changes were evaluated by optical microscopy on HE-stained sections. Masson staining was used to assess the degree of fibrosis in lung tissue. Standardized terminology was applied to classify fibrosis, inflammatory cell infiltration, alveolar hemorrhage, dilation, epithelial hyperplasia, and fibrous exudate using a 4-point scale (mild, moderate, severe, and very severe).
Hydroxyproline content in lung tissue was measured according to the instructions of the assay kit.
Statistical tests commonly used in the field, such as Student's t-test, chi-square test, Mann-Whitney U test, Kruskal-Wallis test (H test), Jonckheere-Terpstra test, and Wilcoxon test, were performed. Statistical analysis was done using SPSS (13.0) software. Results are presented as mean ± standard error. Overall differences were evaluated by One-Way ANOVA for homogeneity of variance, followed by Dunnett's test for inter-group comparisons. When normality tests failed, Kruskal-Wallis test was used for inter-group comparisons. Two-Way ANOVA and Tukey's test were used for multiple comparisons between groups. […]

SMILES: O=C(O[C@@H]1Cc2c(O)cc(O)cc2O[C@@H]1c1cc(O)c(O)c(O)c1)c1cc(O)c(O)c(O)c1 [EGCG, (-)-Epigallocatechin gallate]
- fibrosis score vs model group (aerosol dose 0.4mg/kg or higher, P < 0.05): significant reduction in pulmonary fibrosis
- inhibiting alveolar expansion (all tracheal nebulization groups (0.2, 0.4, 0.8, 1.6mg/kg), 0.4mg/kg most effective): significant differences compared to the model group
- inhibiting inflammatory cell infiltration (all tracheal nebulization groups, 0.4mg/kg best (P < 0.05)): reduced inflammatory cell infiltration
- fibrosis in the lungs (Masson's staining) (inhaling 0.8mg/kg and 1.6mg/kg, D22): almost close to the level of the healthy control group
- Hydroxyproline Content (D22, Inh. 0.2mg/kg once a day from D10): 2.807 ± 0.3982 µg/µL
- Hydroxyproline Content (D22, Inh. 0.4mg/kg once a day from D10): 2.046 ± 0.690 µg/µL
- Hydroxyproline Content (D22, Inh. 0.8mg/kg once a day from D10): 1.033 ± 0.1476 µg/µL
- Hydroxyproline Content (D22, Inh. 1.6 mg/kg once a day from D10): 1.67 ± 0.1888 µg/µL
- Hydroxyproline Content (D22, P.O 100mg/kg once a day from D10): 1.928 ± 0.1326 µg/µL
- collagen deposition (Masson's staining) vs model group (oral administration 100 mg/kg, difference not significant, D22): decreased slightly
- lung tissue histopathology (H&E staining) (oral administration 100 mg/kg, no significant difference vs model group, D22): slight improvement in lung tissue morphology
- inhibiting inflammatory cell infiltration (oral administration (oral gavage) 100 mg/kg): no anti-inflammatory effect
- alveolar inflammation scores vs model group (oral gavage 100 mg/kg): no significant difference
- body weight (oral gavage 100 mg/kg): weight gain in the oral gavage group was slower
- fibrosis score vs model group (oral gavage 100 mg/kg): did not show a significant difference
- lung coefficient vs model group (oral gavage 100 mg/kg): did not show a significant difference
- alveolar inflammation scores vs model group (tracheal nebulization): significantly suppressed the further development of alveolar inflammation
- inhibiting alveolar hemorrhage (tracheal nebulization 0.2mg/kg and 0.4mg/kg): significantly better than the oral gavage group
- lung coefficient vs model group (tracheal nebulization 0.2mg/kg and 0.4mg/kg, P < 0.01, P < 0.001): significantly reduced
- body weight (tracheal nebulization 0.2mg/kg and 0.4mg/kg, significant vs model group): returned to baseline levels by Day 22
- hydroxyproline content in lung tissue (in words) (tracheal nebulization 0.2mg/kg, 0.4mg/kg, and 0.8mg/kg, D22): dose-dependently reduced
- inhibiting alveolar fibrous exudates (tracheal nebulization 1.6mg/kg): significant differences compared to the model group
- lung tissue histopathology (H&E staining) (tracheal nebulization, best at 0.4mg/kg and 0.8mg/kg, D22): reduced alveolar interstitial proliferation
- collagen deposition (Masson's staining) vs model group (tracheal nebulization, dose-response, especially 0.4mg/kg and above, D22): significantly reduced collagen deposition
